{
  "source": "paper PMC4866733",
  "about": "(PLoS Genetics, 2016)",
  "key": {"GacSH1": {"molecular_target": "T1, GacSH1 (Pseudomonas aeruginosa, UniProt G3XD98)", "T1 construct": "gene gacS", "T1 sequence (G3XD98 entry or part of it)": "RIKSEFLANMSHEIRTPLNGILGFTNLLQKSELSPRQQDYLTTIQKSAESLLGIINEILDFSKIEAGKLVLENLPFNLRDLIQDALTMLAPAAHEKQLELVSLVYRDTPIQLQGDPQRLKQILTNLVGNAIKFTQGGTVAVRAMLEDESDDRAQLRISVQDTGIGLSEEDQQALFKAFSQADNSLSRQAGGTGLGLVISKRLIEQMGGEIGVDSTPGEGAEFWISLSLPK", "conditions": "0.1 mM ATP, 5 mM MgCl2, 50 mM KCl, 50 mM Tris-HCl pH 7.6, 1 mM DTT, room temperature, 20 min; GacSD1 present; labelled compound"}, "LadSH1D1": {"molecular_target": "T2, LadSH1D1 (Pseudomonas aeruginosa, UniProt Q9HX42)", "T2 construct": "gene ladS", "T2 sequence (Q9HX42 entry or part of it)": "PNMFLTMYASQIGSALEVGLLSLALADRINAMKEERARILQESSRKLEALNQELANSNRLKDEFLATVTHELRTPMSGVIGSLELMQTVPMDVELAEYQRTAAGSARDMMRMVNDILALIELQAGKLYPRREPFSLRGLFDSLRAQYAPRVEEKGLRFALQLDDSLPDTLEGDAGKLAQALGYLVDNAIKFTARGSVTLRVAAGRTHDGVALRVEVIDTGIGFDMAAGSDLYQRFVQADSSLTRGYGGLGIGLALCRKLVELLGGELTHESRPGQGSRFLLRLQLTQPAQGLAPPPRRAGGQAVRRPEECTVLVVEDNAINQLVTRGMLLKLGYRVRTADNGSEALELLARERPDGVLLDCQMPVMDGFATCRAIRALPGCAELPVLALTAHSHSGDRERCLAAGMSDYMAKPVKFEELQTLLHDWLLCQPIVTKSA", "conditions": "0.1 mM ATP, 5 mM MgCl2, 50 mM KCl, 50 mM Tris-HCl pH 7.6, 1 mM DTT, room temperature, 20 min; labelled compound; phosphoryl transfer to H428"}},
  "data": [
    {"smiles": "Nc1ncnc2c1ncn2[C@@H]1O[C@H](COP(=O)(O)OP(=O)(O)OP(=O)(O)O)[C@@H](O)[C@H]1O", "note": "[[γ-^32P]ATP]", "values": [
      {"measurement": "autophosphorylation and phosphotransfer to GacSD1, SDS-PAGE and autoradiography", "setting": "GacSH1", "value": "between the H1 domain of GacS and the D1 domain of GacS"},
      {"measurement": "autophosphorylation, SDS-PAGE and autoradiography", "setting": "LadSH1D1", "value": "LadSH1D1 and LadSH1D1D→A proteins were found in an autophosphorylated form"}
    ]}
  ]
}
